Read-outs that look alike come from different tables or passages of the source. Marks after values point to notes of the source that are not given here.
Assays:
[1] = system: Tubulin α1 (Tα1) promoter; assay: cells; details: for LOAEL Neurons Tα1: ESC-derived neurons, 48 h exposure
Outline: (§1)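 Mouse CGR8 ESCs carrying Tα1-firefly and EF1α-Renilla luciferase reporters, treated either undifferentiated (48 h exposure after 24 h plating) or as MS5-induced neurons (exposure day 6 to day 8). Dual-luciferase luminescence expressed as % promoter activity versus DMSO control wells; 5 µM methylmercury as positive control.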

EF1α promoter = details: for LOAEL ESC EF1α: undifferentiated ESCs
Outline: as §1

[2] = system: Tubulin α1 (Tα1) promoter; details: for LOAEL ESC Tα1: undifferentiated ESCs, 48 h exposure, lowest tested concentration with statistically significant decrease
Outline: as §1

[3] = system: undifferentiated pluripotent stem cells (ESCs); assay: Dual luminescence reporter test system, undifferentiated ESCs (readout not separated); assay type: cell-based, mouse; details: in vitro toxicity data expressed as EC20
Text: (§2) Fig. 1 Synopsis of experimental protocols. The impact of compounds on neural promoter activity (FLuc, Firefly Luciferase under the control of the Tα1 promoter), general promoter activity (RLuc, Renilla Luciferase under the control of the EF1α promoter), and amount of DNA (PI, propidium iodide fluorescence in cell homogenates) was investigated in undifferentiated mouse embryonic pluripotent stem cells (ESCs) and on ESC-derived neurons. Arrows indicate the time of measurement of the three parameters. a Protocol for testing compounds effects on ESCs. CGR8-2Luc cells were plated on gelatin-coated 96-well plates in maintenance medium (BHK21 medium containing 10 % FCS, L-glutamine, NEAA, P/S, and LIF). Twenty-four hours later, cells were exposed to compounds for forty-eight hours. b Protocol for testing compounds on ESC-derived neurons. CGR8-2Luc cells were co-cultured with MS5 cells to induce neural differentiation in DMEM medium containing 15 % KO-serum, NEAA, β-mercaptoethanol, and P/S. On day 5, cells were detached and seeded on polyornithine-coated plates in DMEM medium containing N2 supplement, bFGF, and P/S; compound exposure was from day 6 to day 8
(§3) To test compounds on ESC-derived neurons, neuronal differentiation was carried out as previously described (Suter et al. [2009]; Xu et al. [2014]). Briefly, CGR8-2Luc cells were seeded on irradiated bone marrow-derived stromal MS5 cells and cultivated for 4 days in DMEM medium containing 15 % Knock-out™ Serum Replacement, non-essential amino acids, beta-mercaptoethanol, and penicillin/streptomycin. At day 5, cells were then re-plated (3 × 10^5 cells/cm^2) on polyornithine-coated 96-well plates in N2 medium containing DMEM, N2 supplement, penicillin/streptomycin, and 10 ng/ml basic human fibroblast growth factor (bFGF) (Invitrogen). […] To assess toxicity of compounds on undifferentiated pluripotent stem cells (ESCs), CGR8-2Luc cells were plated at 45,000 cells/cm^2 on 0.1 % gelatin-coated dishes in BHK21 medium, supplemented with 10 % fetal calf serum, L-glutamine, non-essential amino acids, penicillin/streptomycin, and leukemia inhibitory factor (LIF). After 24 h, compounds were added and incubated for 48 h, before luciferase expression and PI fluorescence were analyzed. In all experiments, methylmercury was used as a positive control at a concentration of 5 µM.
(§4) Luciferase activities were measured with a Dual-Luciferase™ Reporter system kit. CGR8-2Luc ES cells were lysed in 96-well plates according to the manufacturer’s instructions. Luminescence measurements were performed on a Fluostar Optima reader. Luminescence counts were expressed as percentage of promoter activity normalized by comparison with the control wells treated by DMSO. […] parameters were measured in homogenates of ESCs and in ESC-derived neurons: (1) FLuc, reflecting the activity of early neural promoter Tα1. FLuc increases during neuronal differentiation. Many neurotoxic compounds may affect FLuc expression, either through impact on neuronal differentiation, through changes of neuronal gene expression, or through killing of neurons.
After measurement of luciferase activity, DNA quantity was determined by PI assay, as previously described (Xu et al. [2014]). PI was added to cell homogenates after the luciferase test, at a final concentration of 50 µg/ml and incubated for 2 h. After incubation, fluorescence intensity was measured on a Flexstation 3 microplate reader (Excitation: 544 nm ± 15 nm; Emission: 620 nm ± 15 nm). Results are expressed as percentage of control. Propidium iodide (PI) measures total DNA content as an approximation of the cell number.

ESC-derived neurons = details: in vitro toxicity data expressed as EC20
Text: as §2, §3, §4
After measurement of luciferase activity, DNA quantity was determined by PI assay, as previously described (Xu et al. [2014]). […] After incubation, fluorescence intensity was measured on a Flexstation 3 microplate reader (Excitation: 544 nm ± 15 nm; Emission: 620 nm ± 15 nm). Results are expressed as percentage of control. […]

plasma protein = details: cited from earlier work; for fb,pl (plasma bound fraction): extracted from the literature (geldanamycin value assumed)
[4] = ref Zimmer et al. ([2014]); cited from earlier work

Compound | effect on neural promoter activity in neurons [1] | LOAEL Neurons Tα1 [1] [µM] | LOAEL Neurons EF1α (EF1α promoter; mouse, 48 h) [µM] | LOAEL ESC EF1α (EF1α promoter; 48 h exposure) [µM] | effect on neural promoter activity in ESCs [2] | LOAEL ESC Tα1 [2] [µM] | In vitro EC20 in ESC [3] [nM] | In vitro EC20 in ESC-derived neurons (ESC-derived neurons) [nM] | fb,pl (plasma bound fraction) (plasma protein) | average bound fraction in plasma (plasma protein; ref Russo et al. [2013]) [%] | Concentration in humans [4] | LOAEL Neurons EF1α (EF1α promoter; ESC-derived neurons, 48 h exposure) [µM]
C/C(O)=C(\C#N)C(=O)Nc1ccc(C(F)(F)F)cc1 [Teriflunomide] | increase | 50 | >50 | >50 | increase | >50 | 4000 to 40000 | 10000 to 20000 | 0.995 | 99.46 | 10.8^k µM | 
COC1=C2C[C@@H](C)C[C@H](OC)[C@H](O)[C@@H](C)/C=C(\C)[C@H](OC(N)=O)[C@@H](OC)/C=C\C=C(/C)C(=O)NC(=CC1=O)C2=O [Geldanamycin] |  | 0.05 |  | 0.5 |  | 0.005 | 10 | 1 | 0.990 |  | 0.8^k µM | 0.05

Source: article PMC5225183, “Fingerprinting of neurotoxic compounds using a mouse embryonic stem cell dual luminescence reporter assay” (Archives of Toxicology, 2016)
